For one test, the system named is Phytophthora infestans. Kind of test: whole plant or invertebrate. The settings on record: in Solanum lycopersicum, foliar, read-out: control of Phytophthora infestans compared to untreated control. The test is classed as in vivo.
For another test, the system named is Plasmopara viticola. Kind of test: whole plant or invertebrate. The test is classed as in vivo. The settings on record: foliar, read-out: control of Plasmopara viticola compared to untreated control.
A further test deals with Pythium ultimum. Kind of test: Pythium ultimum / liquid culture (seedling damping off). Type of test: cell-based. The following applies: Globisporangium ultimum, liquid culture in PDB, 24 °C, 2-3 days after application, read-out: control of Pythium ultimum (inhibition of growth, photometric) compared to untreated control. An outline of the steps:
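Mycelia fragments and oospores from fresh liquid culture mixed into potato dextrose broth and added to compound in DMSO. Incubated at 24° C.; growth inhibition read photometrically 2–3 days after application.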

Broadly, the inhibition is the percentage by which the read-out fell short of the control. In the case of `COC(=O)Nc1ccc(-c2cnc3ccc(C(=O)N(C)c4ccc(F)c(OC)c4)cn23)cn1` [Compound 45, methyl N-[5-[6-[(4-fluoro-3-methoxy-phenyl)-methyl-carbamoyl]imidazo[1,2-a]pyridin-3-yl]-2-pyridyl]carbamate], the pest or weed control at 200 ppm in the test on Phytophthora infestans and in the test on Plasmopara viticola was ≥ 80% each time. Moreover, the inhibition at 20 ppm with Pythium ultimum was ≥ 80%.
On to `COC(=O)Nc1ccc(-c2cnc3ccc(C(=O)N(C)c4ccc(Cl)c(C)c4)cn23)cn1` [Compound 46, methyl N-[5-[6-[(4-chloro-3-methyl-phenyl)-methyl-carbamoyl]imidazo[1,2-a]pyridin-3-yl]-2-pyridyl]carbamate], for which the pest or weed control at 200 ppm in the test with Phytophthora infestans and in the test with Plasmopara viticola was ≥ 80% throughout. Moreover, the inhibition at 20 ppm with Pythium ultimum was ≥ 80%.
As to `COC(=O)Nc1ccc(-c2cnc3ccc(C(=O)N(C)c4ccc(C#N)c(Cl)c4)cn23)cn1` [Compound 107, methyl N-[5-[6-[(3-chloro-4-cyano-phenyl)-methyl-carbamoyl]imidazo[1,2-a]pyridin-3-yl]-2-pyridyl]carbamate], the pest or weed control at 200 ppm with Phytophthora infestans and in the test with Plasmopara viticola was ≥ 80% throughout. Further, the inhibition at 20 ppm with Pythium ultimum is ≥ 80%.
`COCCN(C(=O)c1cc(C)c2ncc(-c3ccc(NC(=O)OC)nc3)n2c1)c1ccc(F)c(OC)c1` [Compound 177, methyl N-[5-[6-[(4-fluoro-3-methoxy-phenyl)-(2-methoxyethyl)carbamoyl]-8-methyl-imidazo[1,2-a]pyridin-3-yl]-2-pyridyl]carbamate]: the pest or weed control at 200 ppm in the test with Phytophthora infestans and in the test with Plasmopara viticola was ≥ 80% each time.
`CCN(C(=O)c1ccc2ncc(-c3ccc(NC(=O)OC)nc3)n2c1)c1ccc(F)c(OC)c1` [Compound 178, methyl N-[5-[6-[ethyl-(4-fluoro-3-methoxy-phenyl)carbamoyl]imidazo [1,2-a]pyridin-3-yl]-2-pyridyl]carbamate]: the pest or weed control at 200 ppm with Phytophthora infestans and in the test with Plasmopara viticola was ≥ 80% each time. For the same molecule, the inhibition at 20 ppm with Pythium ultimum was ≥ 80%.
With `COC(=O)Nc1ccc(-c2cnc3ccc(C(=O)N(C)c4ccc(C#N)c(C)c4)cn23)cn1` [Compound 53, methyl N-[5-[6-[(4-cyano-3-methyl-phenyl)-methyl-carbamoyl]imidazo[1,2-a]pyridin-3-yl]-2-pyridyl]carbamate], the pest or weed control at 200 ppm in the test with Phytophthora infestans and in the test on Plasmopara viticola was ≥ 80% in each case. For the same molecule, in the test on Pythium ultimum, the inhibition at 20 ppm is ≥ 80%.
For the molecule `CCN(C(=O)c1ccc2ncc(-c3ccc(NC(=O)OC)nc3)n2c1)c1cccc(OC)c1` [Compound 124, methyl N-[5-[6-[ethyl-(3-methoxyphenyl)carbamoyl]imidazo[1,2-a]pyridin-3-yl]-2-pyridyl]carbamate], the pest or weed control at 200 ppm in the test on Phytophthora infestans and in the test with Plasmopara viticola was ≥ 80% in each case. For the same molecule, in the test with Pythium ultimum, the inhibition at 20 ppm is ≥ 80%.
As for `COC(=O)Nc1ccc(-c2cnc3ccc(C(=O)N(C)c4ccc(F)c(Cl)c4)cn23)cn1` [Compound 113, methyl N-[5-[6-[(3-chloro-4-fluoro-phenyl)-methyl-carbamoyl]imidazo[1,2-a]pyridin-3-yl]-2-pyridyl]carbamate], the pest or weed control at 200 ppm in the test on Phytophthora infestans and in the test on Plasmopara viticola was ≥ 80% each time. For the same molecule, the inhibition at 20 ppm in the test on Pythium ultimum is ≥ 80%.
`COC(=O)Nc1ccc(-c2cnc3ccc(C(=O)N(C)c4ccccc4)cn23)cn1` [Compound 61, methyl N-[5-[6-[methyl(phenyl)carbamoyl]imidazo[1,2-a]pyridin-3-yl]-2-pyridyl]carbamate]: the pest or weed control at 200 ppm in the test on Plasmopara viticola was ≥ 80%. Moreover, the inhibition at 20 ppm in the test on Pythium ultimum was ≥ 80%.
Take `COC(=O)Nc1ccc(-c2cnc3ccc(C(=O)N(CC#N)c4ccc(Cl)c(OC)c4)cn23)cn1` [Compound 90, methyl N-[5-[6-[(4-chloro-3-methoxy-phenyl)-(cyanomethyl)carbamoyl]imidazo[1,2-a]pyridin-3-yl]-2-pyridyl]carbamate]: the pest or weed control at 200 ppm in the test with Phytophthora infestans and in the test with Plasmopara viticola was ≥ 80% throughout. For the same molecule, the inhibition at 20 ppm in the test with Pythium ultimum was ≥ 80%.
For the molecule `CCN(C(=O)c1ccc2ncc(-c3ccc(NC(=O)OC)nc3)n2c1)c1ccc(F)cc1` [Compound 136, methyl N-[5-[6-[ethyl-(4-fluorophenyl)carbamoyl]imidazo[1,2-a]pyridin-3-yl]-2-pyridyl]carbamate], the pest or weed control at 200 ppm with Phytophthora infestans and in the test with Plasmopara viticola was ≥ 80% each time. The inhibition at 20 ppm with Pythium ultimum was ≥ 80%.
In the case of `COC(=O)Nc1ccc(-c2cnc3c(C)cc(C(=O)N(C)c4ccc(Cl)cc4)cn23)cc1` [Compound 19, methyl N-[4-[6-[(4-chlorophenyl)-methyl-carbamoyl]-8-methyl-imidazo[1,2-a]pyridin-3-yl]phenyl]carbamate], the pest or weed control at 200 ppm in the test with Phytophthora infestans and in the test on Plasmopara viticola was ≥ 80% throughout. The inhibition at 20 ppm in the test with Pythium ultimum is ≥ 80%.
As to `COCN(C(=O)c1ccc2ncc(-c3ccc(NC(=O)OC)nc3)n2c1)c1ccc(F)c(OC)c1` [Compound 93, methyl N-[5-[6-[(4-fluoro-3-methoxy-phenyl)-(methoxymethyl)carbamoyl]imidazo[1,2-a]pyridin-3-yl]-2-pyridyl]carbamate], the pest or weed control at 200 ppm in the test on Phytophthora infestans and in the test with Plasmopara viticola was ≥ 80% throughout. The inhibition at 20 ppm in the test with Pythium ultimum is ≥ 80%.
Take `CCCN(C(=O)c1ccc2ncc(-c3ccc(NC(=O)OC)nc3)n2c1)c1ccc(Cl)c(C)c1` [Compound 126, methyl N-[5-[6-[(4-chloro-3-methyl-phenyl)-propyl-carbamoyl]imidazo[1,2-a]pyridin-3-yl]-2-pyridyl]carbamate]: in the test with Plasmopara viticola, the pest or weed control at 200 ppm is ≥ 80%. Further, the inhibition at 20 ppm in the test with Pythium ultimum is ≥ 80%.
Consider `COCN(C(=O)c1cc(C)c2ncc(-c3ccc(NC(=O)OC)nc3)n2c1)c1ccc(F)c(OC)c1` [Compound 94, methyl N-[5-[6-[(4-fluoro-3-methoxy-phenyl)-(methoxymethyl)carbamoyl]-8-methyl-imidazo[1,2-a]pyridin-3-yl]-2-pyridyl]carbamate], for which the pest or weed control at 200 ppm with Phytophthora infestans and in the test with Plasmopara viticola was ≥ 80% throughout. Besides, the inhibition at 20 ppm in the test on Pythium ultimum is ≥ 80%.
`COC(=O)Nc1ccc(-c2cnc3ccc(C(=O)N(C)c4cc(OC)cc(OC)c4)cn23)cn1` [Compound 58, methyl N-[5-[6-[(3,5-dimethoxyphenyl)-methyl-carbamoyl]imidazo[1,2-a]pyridin-3-yl]-2-pyridyl]carbamate]: in the test on Plasmopara viticola, the pest or weed control at 200 ppm was ≥ 80%. For the same molecule, in the test with Pythium ultimum, the inhibition at 20 ppm is ≥ 80%.
In the case of `COC(=O)Nc1ccc(-c2cnc3ccc(C(=O)N(C)c4cccc(OC(F)F)c4)cn23)cc1` [Compound 9, methyl N-[4-[6-[[3-(difluoromethoxy)phenyl]-methyl-carbamoyl]imidazo[1,2-a]pyridin-3-yl]phenyl]carbamate], the pest or weed control at 200 ppm in the test with Plasmopara viticola was ≥ 80%. For the same molecule, in the test with Pythium ultimum, the inhibition at 20 ppm was ≥ 80%.
`COC(=O)Nc1ccc(-c2cnc3ccc(C(=O)N(C)c4ccc(C)cc4)cn23)cn1` [Compound 64, methyl N-[5-[6-[methyl (p-tolyl)carbamoyl]imidazo [1,2-a]pyridin-3-yl]-2-pyridyl]carbamate]: the pest or weed control at 200 ppm with Plasmopara viticola was ≥ 80%. Moreover, in the test on Pythium ultimum, the inhibition at 20 ppm is ≥ 80%.
`CCN(C(=O)c1ccc2ncc(-c3ccc(NC(=O)OC)nc3)n2c1)c1ccccc1` [Compound 137, methyl N-[5-[6-[ethyl(phenyl)carbamoyl]imidazo[1,2-a]pyridin-3-yl]-2-pyridyl]carbamate]: in the test with Plasmopara viticola, the pest or weed control at 200 ppm was ≥ 80%. The inhibition at 20 ppm in the test with Pythium ultimum is ≥ 80%.
Regarding `CCC(=O)Nc1ccc(-c2cnc3ccc(C(=O)N(C)c4ccc(F)c(C)c4)cn23)cn1` [Compound 78, N-(4-fluoro-3-methyl-phenyl)-N-methyl-3-[6-(propanoylamino)-3-pyridyl]imidazo[1,2-a]pyridine-6-carboxamide], the pest or weed control at 200 ppm in the test with Plasmopara viticola was ≥ 80%. The inhibition at 20 ppm in the test on Pythium ultimum is ≥ 80%.
Regarding `CC(=O)Nc1ccc(-c2cnc3ccc(C(=O)N(C)c4ccc(Cl)cc4)cn23)cc1` [Compound 1, 3-(4-acetamidophenyl)-N-(4-chlorophenyl)-N-methyl-imidazo[1,2-a]pyridine-6-carboxamide], in the test on Plasmopara viticola, the pest or weed control at 200 ppm was ≥ 80%. Moreover, in the test with Pythium ultimum, the inhibition at 20 ppm was ≥ 80%.
As to `COC(=O)Nc1ccc(-c2cnc3ccc(C(=O)N(c4ccc(F)cc4)C(C)C)cn23)cn1` [Compound 140, methyl N-[5-[6-[(4-fluorophenyl)-isopropyl-carbamoyl]imidazo[1,2-a]pyridin-3-yl]-2-pyridyl]carbamate], in the test with Phytophthora infestans, the pest or weed control at 200 ppm was ≥ 80%. The inhibition at 20 ppm in the test with Pythium ultimum is ≥ 80%.
With `COCCOc1cc(N(C)C(=O)c2ccc3ncc(-c4ccc(NC(=O)OC)nc4)n3c2)ccc1F` [Compound 77, methyl N-[5-[6-[[4-fluoro-3-(2-methoxyethoxy)phenyl]-methyl-carbamoyl]imidazo[1,2-a]pyridin-3-yl]-2-pyridyl]carbamate], in the test on Phytophthora infestans, the pest or weed control at 200 ppm is ≥ 80%. The inhibition at 20 ppm with Pythium ultimum is ≥ 80%.
As to `CCc1cccc(N(C)C(=O)c2ccc3ncc(-c4ccc(NC(=O)OC)cc4)n3c2)c1` [Compound 10, methyl N-[4-[6-[(3-ethylphenyl)-methyl-carbamoyl]imidazo[1,2-a]pyridin-3-yl]phenyl]carbamate], the pest or weed control at 200 ppm in the test with Phytophthora infestans is ≥ 80%. Besides, the inhibition at 20 ppm in the test on Pythium ultimum was ≥ 80%.
In the case of `CNC(=O)c1cccc(N(C)C(=O)c2ccc3ncc(-c4ccc(NC(=O)OC)nc4)n3c2)c1` [Compound 115, methyl N-[5-[6-[methyl-[3-(methylcarbamoyl)phenyl]carbamoyl]imidazo[1,2-a]pyridin-3-yl]-2-pyridyl]carbamate], the pest or weed control at 200 ppm in the test on Phytophthora infestans is ≥ 80%. In addition, in the test with Pythium ultimum, the inhibition at 20 ppm is ≥ 80%.

The record behind these values is US20240425500A1 (priority 2021, published 2024).
